According to patent US20020106347A1, “Cytokines and their use in treatment and/or prophylaxis of breast cancer” (priority 1995, published 2002):
Entries after “also recorded” stand apart in the source; their conditions may differ.

Experiments:
MDA-MB-231 cell line = assay: Receptor binding of radioiodinated ligand to MDA-MB-231 cells, Scatchard analysis; parameters: species or system human; conditions: for specific binding(cpm)/10^6 cells: MDA-MB-231, 125I-ligand, room temperature 60 min
Description: FIG. 20 is a graphical representation showing Scatchard analyses of the saturation isotherms of LIF and OSM binding to breast cancer cell lines. Cells were incubated with various concentrations of labelled or unlabelled ligand in the presence or absence of a 10-100 fold excess of unlabelled ligand. After 18 hr on ice, bound and free ligand were separated by centrifugation through bovine calf serum. Bound and free ^125I-ligand was quantitated in a γ-counter and the data was depicted as a Scatchard transformation. Data was normalised for cell number and is shown as binding to 10^6 cells. A) Saturation isotherm of LIF binding to the MCF-7 cell line. […] B) Saturation isotherm of OSM binding to the MDA-MB-231 cell line.
(§1) Receptor binding assays were performed using radioiodinated LIF (^125I-LIF) and OSM (^125I-OSM). The radioiodination of LIF and OSM and binding assays were essentially performed as previously described (Hilton et al., 1991; Hilton and Nicola, 1992). Briefly, 50 μl aliquots containing 1×10^7 cells, suspended in RPMI-1640 medium containing 10% (v/v) BCS, were placed in Falcon tubes with 40 μl of the respective radioiodinated ligand at 1×10^5 cpm per 40 μl, with or without greater than a 40-fold excess of unlabelled ligand. Incubation was carried out at room temperature for 60 min and cells were resuspended and layered over 180 μl of (v/v) BCS. Cell associated and free radioiodinated ligand were separated by centrifugation. The pellet and supernatant were subsequently counted in a γ-counter. Specific binding was estimated by subtraction of non specific binding from binding with ^125I-ligand (total binding). Number of cell surface receptors and dissociation constant were calculated by Scatchard analysis.

MCF-7 cells = assay: Cell morphology after exposure to growth factor; assay type: cell-based, human; conditions: MCF-7 / MCF-7M, 6-14 days in growth factor
Excerpt: FIG. 4 is a photographic representation showing morphology of growth factor stimulated MCF-7M cells. Following 1 week in suspension culture containing the various growth factors, MCF-7M cells were cytospun onto slides and subsequently stained with Giemsa.
FIG. 11 is a photographic representation showing cell morphology after exposure to OSM. MCF-7 cells from control cultures and appears of cells after 7 days in OSM. A) Control cells, 10× magnification. B) OSM treated cells, 10× magnification. C) OSM treated cells, 40× magnification. D) OSM treated cells, 100× magnification.
FIG. 15 is a photographic representation showing cell morphology after exposure to OSM. MCF-7 cells from control cultures (Panel A) and appearance of cells after culture for 14 days in OSM (10 ng/ml) (Panel B). MDA-MB-231 cells from control cultures (Panel C) and appearance of cells after culture for 7 days in OSM (Panel D).

MDA-MB-231 cells = assay: Proliferation of MDA-MB-231 cells in culture, viable cell count; assay type: cell-based, human
Description: FIG. 19 is a graphical representation showing MDA-MB-231 cells after 7 days in suspension culture. 10^4MDA-MB-231 cells were cultured in 500 μl RPMI/10% (v/v) BCS with the indicated growth factor. After 7 days viable cells were counted using a hemacytometer. Results are from 8 experiments, each performed in triplicate.
(§2) Proliferation of the cell lines was measured in monolayer culture in 24 well Costar cluster plates. Cells were plated at an initial density of 10 000 cells/ml and cultured in 500 μl RPMI-1640 supplemented with 10% (v/v) (v/v) BCS and with each growth factor as indicated (LIF, 1000 U/ml; IL-6, 100 ng/ml; OSM, 10 ng/ml; CNTF, 10 ng/ml; IL-11, 100 ng/ml). These concentrations are maximally active in other systems (Nandurkar et al., 1996; Hilton et al., 1994; Zhang et al., 1994; Tanigawa et al., 1995). After 7 or 10 days at 37° C. in a fully humidified atmosphere containing 10% (v/v) CO2 in air, cells were trypsinised and counted using a haemocytometer and an inverted microscope. Cell viability was assessed using eosin exclusion. Results were expressed as a percentage of the corresponding untreated control value for that experiment.

[1] = test system: four breast cancer cell lines; assay: Proliferation of four breast cancer cell lines in monolayer culture (summary); assay type: cell-based, human
Description: as §2
Experiments were performed to determine whether these morphological changes were associated with alterations in cell growth. The proliferation of four breast cancer cell lines was examined in monolayer cultures containing either IL-6, LIF, OSM, CNTF or IL-11.

BT-549 cells = assay: Proliferation of BT-549 cells in culture, viable cell count; assay type: cell-based, human; conditions: for effect on cell proliferation (in words): BT-549
Description: FIGS 5A and B are graphical representations of BT-549 cells in liquid culture. 10^4 BT-549 cells were cultured in 500 μl RPMI/10% (v/v) BCS containing the relevant concentration of each of the growth factors (OSM, IL-11 and IL-6). After 10 days, culture viable cells were counted using a hemacytometer. Cell numbers reported here in the two graphs are the results of 1 experiment performed in triplicate.
FIG. 18 is a graphical representation showing BT-549 cells after 10 days in suspension culture. 10^4BT-549 cells were cultured in 500 μl RPMI/10% (v/v) BCS with the indicated growth factor. After 10 days culture viable cells were counted using a hemacytometer. Results are from 6 experiments, each performed in triplicate.
as §2

T47D = assay: Receptor binding of radioiodinated ligand to T-47D cells; parameters: species or system human; conditions: 125I-ligand, room temperature 60 min
Description: as §1

| Substance | specific binding(cpm)/10^6 cells (MDA-MB-231 cell line) | cell morphology (in words) (MCF-7 cells) | effect on cellular proliferation (in words) (MDA-MB-231 cells; MDA-MB-231) | cell lines with significant inhibition of cellular proliferation [1] | effect on cell proliferation (in words) (BT-549 cells) | specific binding(cpm)/10^6 cells (T47D) | Kd (MDA-MB-231 cell line; MDA-MB-231, Scatchard analysis, read-out: dissociation constant) [nM] | inhibition of proliferation, up to (maximum observed) (MDA-MB-231 cells; MDA-MB-231, 7 days) | mean inhibition of proliferation (MDA-MB-231 cells; MDA-MB-231, 7 days, 8 experiments) [%] | mean growth inhibition (BT-549 cells; BT-549, 7 days) [%] | growth inhibition, up to (maximum observed) (BT-549 cells; BT-549, 10 days) | mean growth inhibition (BT-549 cells; BT-549, 10 days) [%] |
| --- | --- | --- | --- | --- | --- | --- | --- | --- | --- | --- | --- | --- |
| Leukemia Inhibitory Factor [LIF] | 450 +/− 120 cpm | appeared larger than the control cells | did not result in significant effects on cellular proliferation | ¼ | failure of BT-549 cells and MDA-MB-231 cells to respond | 380 +/− 10 cpm | – | – | – | – | – | – |
| oncostatin M [OSM] | 2980 +/− 460 cpm | more abundant cytoplasm and vacuolation; also recorded: more fibroblastic phenotype; also recorded: larger and more vacuolated than control cells | – | ¾ | inhibition of cell proliferation | 1400 +/− 20 cpm | 0.092 | up to 65% | 54 | 60 | up to 80% | 60 |
